# Species: Rattus norvegicus
# Type: toxicity, organism-based, Sprague-Dawley
# Settings: in vivo, po, 24 h, route oral GAVAGE, time 1 day, vehicle .5 % CMC; for ABSOLUTE EOSINOPHIL / ABSOLUTE LYMPHOCYTE / ABSOLUTE MONOCYTE / ABSOLUTE SEGMENTED NEUTROPHIL / BASOPHIL / EOSINOPHIL / ERYTHROCYTE COUNT / HEMATOCRIT / HEMOGLOBIN / LEUKOCYTE COUNT / LYMPHOCYTE / MEAN CORPUSCULAR HEMOGLOBIN / MEAN CORPUSCULAR HEMOGLOBIN CONCENTRATION / MEAN CORPUSCULAR VOLUME / MONOCYTE / NEUTROPHIL / NUCLEATED RED BLOOD CELLS / PLATELET COUNT: tissue Blood; for ALANINE AMINOTRANSFERASE / ALBUMIN / ALKALINE PHOSPHATASE / ASPARTATE AMINOTRANSFERASE / BLOOD UREA NITROGEN / CARBON DIOXIDE / CHLORIDE / CHOLESTEROL / CREATININE / GLUCOSE / LACTATE DEHYDROGENASE / LIPASE / PHOSPHORUS / POTASSIUM / SODIUM / TOTAL BILIRUBIN / TOTAL PROTEIN / URIC ACID: tissue Plasma
# [1] = 0 mg/kg, vehicle control, dose level Control
# Description: DrugMatrix - Regimen: Single
compound,measurement,setting,value
COc1ccccc1[N+](=O)[O-] [2-NITROANISOLE],ABSOLUTE EOSINOPHIL,[1],150 CELLS/uL
same,ABSOLUTE LYMPHOCYTE,[1],13279.83 CELLS/uL
same,ABSOLUTE MONOCYTE,[1],654.5 CELLS/uL
same,ABSOLUTE SEGMENTED NEUTROPHIL,[1],1565.67 CELLS/uL
same,BASOPHIL,[1],0%
same,EOSINOPHIL,[1],1%
same,ERYTHROCYTE COUNT,[1],5.36 x10E6/uL
same,HEMATOCRIT,[1],33.37%
same,HEMOGLOBIN,[1],12.52 G/DL
same,LEUKOCYTE COUNT,[1],15.65 x10E3/uL
same,LYMPHOCYTE,[1],84.83%
same,MEAN CORPUSCULAR HEMOGLOBIN,[1],23.4 pg
same,MEAN CORPUSCULAR HEMOGLOBIN CONCENTRATION,[1],37.52 G/DL
same,MEAN CORPUSCULAR VOLUME,[1],62.32 fL
same,MONOCYTE,[1],4.17%
same,NEUTROPHIL,[1],10%
same,NUCLEATED RED BLOOD CELLS,[1],0 /100WBC
same,PLATELET COUNT,[1],1020 x10E3/uL
same,ALANINE AMINOTRANSFERASE,[1],49 u/L
same,ALBUMIN,[1],4.47 G/DL
same,ALKALINE PHOSPHATASE,[1],361.17 u/L
same,ASPARTATE AMINOTRANSFERASE,[1],78.67 u/L
same,BLOOD UREA NITROGEN,[1],13.17 mg/dL
same,CARBON DIOXIDE,[1],29.67 mmol/L
same,CHLORIDE,[1],100.83 MEQ/L
same,CHOLESTEROL,[1],82.17 mg/dL
same,CREATININE,[1],0.15 mg/dL
same,GLUCOSE,[1],150.83 mg/dL
same,LACTATE DEHYDROGENASE,[1],239.17 u/L
same,LIPASE,[1],7.83 u/L
same,PHOSPHORUS,[1],13.82 mg/dL
same,POTASSIUM,[1],6.62 MEQ/L
same,SODIUM,[1],144.25 MEQ/L
same,TOTAL BILIRUBIN,[1],0.15 mg/dL
same,TOTAL PROTEIN,[1],6.2 G/DL
same,URIC ACID,[1],1.57 mg/dL
same,ABSOLUTE EOSINOPHIL,"740 mg/kg, dose level High",270.67 CELLS/uL
same,ABSOLUTE LYMPHOCYTE,"740 mg/kg, dose level High",12900.33 CELLS/uL
same,ABSOLUTE MONOCYTE,"740 mg/kg, dose level High",775.33 CELLS/uL
same,ABSOLUTE SEGMENTED NEUTROPHIL,"740 mg/kg, dose level High",1353.67 CELLS/uL
same,BASOPHIL,"740 mg/kg, dose level High",0%
same,EOSINOPHIL,"740 mg/kg, dose level High",2%
same,ERYTHROCYTE COUNT,"740 mg/kg, dose level High",5.82 x10E6/uL
same,HEMATOCRIT,"740 mg/kg, dose level High",35.73%
same,HEMOGLOBIN,"740 mg/kg, dose level High",13 G/DL
same,LEUKOCYTE COUNT,"740 mg/kg, dose level High",15.3 x10E3/uL
same,LYMPHOCYTE,"740 mg/kg, dose level High",84.33%
same,MEAN CORPUSCULAR HEMOGLOBIN,"740 mg/kg, dose level High",22.4 pg
same,MEAN CORPUSCULAR HEMOGLOBIN CONCENTRATION,"740 mg/kg, dose level High",36.43 G/DL
same,MEAN CORPUSCULAR VOLUME,"740 mg/kg, dose level High",61.43 fL
same,MONOCYTE,"740 mg/kg, dose level High",5%
same,NEUTROPHIL,"740 mg/kg, dose level High",8.67%
same,NUCLEATED RED BLOOD CELLS,"740 mg/kg, dose level High",0 /100WBC
same,PLATELET COUNT,"740 mg/kg, dose level High",1078.67 x10E3/uL
same,ALANINE AMINOTRANSFERASE,"740 mg/kg, dose level High",63 u/L
same,ALBUMIN,"740 mg/kg, dose level High",4.53 G/DL
same,ALKALINE PHOSPHATASE,"740 mg/kg, dose level High",432.67 u/L
same,ASPARTATE AMINOTRANSFERASE,"740 mg/kg, dose level High",85.67 u/L
same,BLOOD UREA NITROGEN,"740 mg/kg, dose level High",13 mg/dL
same,CARBON DIOXIDE,"740 mg/kg, dose level High",29 mmol/L
same,CHLORIDE,"740 mg/kg, dose level High",102.33 MEQ/L
same,CHOLESTEROL,"740 mg/kg, dose level High",77.67 mg/dL
same,CREATININE,"740 mg/kg, dose level High",0.2 mg/dL
same,GLUCOSE,"740 mg/kg, dose level High",124.33 mg/dL
same,LACTATE DEHYDROGENASE,"740 mg/kg, dose level High",283.67 u/L
same,LIPASE,"740 mg/kg, dose level High",9 u/L
same,PHOSPHORUS,"740 mg/kg, dose level High",12.9 mg/dL
same,POTASSIUM,"740 mg/kg, dose level High",7.13 MEQ/L
same,SODIUM,"740 mg/kg, dose level High",144.43 MEQ/L
same,TOTAL BILIRUBIN,"740 mg/kg, dose level High",0.27 mg/dL
same,TOTAL PROTEIN,"740 mg/kg, dose level High",6.03 G/DL
same,URIC ACID,"740 mg/kg, dose level High",1.33 mg/dL
